Assay results published in ChEMBL document CHEMBL1136629, “Amphipathic 3-phenyl-7-propylbenzisoxazoles; human pPaR gamma, delta and alpha agonists” (Bioorg Med Chem Lett, 2003).

Columns and labels:
[1] = target: T1, Peroxisome proliferator-activated receptor gamma (Homo sapiens, UniProt P37231); experiment: In vitro binding affinity towards human peroxisome proliferator activated receptor gamma (PPAR gamma)
T1 sequence (P37231 whole entry): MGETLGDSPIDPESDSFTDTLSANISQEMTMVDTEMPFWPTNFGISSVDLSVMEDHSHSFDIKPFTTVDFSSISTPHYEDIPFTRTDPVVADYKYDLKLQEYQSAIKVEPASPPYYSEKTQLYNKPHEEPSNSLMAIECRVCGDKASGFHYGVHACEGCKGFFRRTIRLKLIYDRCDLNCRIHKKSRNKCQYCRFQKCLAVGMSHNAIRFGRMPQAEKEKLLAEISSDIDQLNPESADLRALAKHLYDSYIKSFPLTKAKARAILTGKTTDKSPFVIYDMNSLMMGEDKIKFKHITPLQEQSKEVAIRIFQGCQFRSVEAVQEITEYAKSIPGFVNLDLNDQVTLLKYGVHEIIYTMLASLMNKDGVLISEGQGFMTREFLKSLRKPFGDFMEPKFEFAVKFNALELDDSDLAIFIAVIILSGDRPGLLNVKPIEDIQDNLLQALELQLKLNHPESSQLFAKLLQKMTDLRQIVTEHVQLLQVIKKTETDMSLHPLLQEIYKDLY

[2] = target: T2, Peroxisome proliferator-activated receptor alpha (Homo sapiens, UniProt Q07869); experiment: In vitro binding affinity towards human peroxisome proliferator activated receptor alpha (PPAR alpha)
T2 sequence (Q07869 whole entry): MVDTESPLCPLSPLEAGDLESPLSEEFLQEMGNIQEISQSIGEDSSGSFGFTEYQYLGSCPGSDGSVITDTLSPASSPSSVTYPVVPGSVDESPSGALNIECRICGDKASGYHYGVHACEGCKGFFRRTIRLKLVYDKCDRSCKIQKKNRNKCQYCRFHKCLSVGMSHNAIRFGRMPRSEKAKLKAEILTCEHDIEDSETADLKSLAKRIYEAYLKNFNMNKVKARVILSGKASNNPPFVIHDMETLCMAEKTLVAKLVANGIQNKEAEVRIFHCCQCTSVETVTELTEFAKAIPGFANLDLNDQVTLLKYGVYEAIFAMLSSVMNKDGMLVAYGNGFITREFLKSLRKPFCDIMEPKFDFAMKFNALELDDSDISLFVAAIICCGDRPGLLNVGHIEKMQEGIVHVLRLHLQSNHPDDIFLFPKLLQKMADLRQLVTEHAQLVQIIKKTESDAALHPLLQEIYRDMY

[3] = target: T3, Peroxisome proliferator-activated receptor delta (Homo sapiens, UniProt Q03181)
T3 sequence (Q03181 whole entry): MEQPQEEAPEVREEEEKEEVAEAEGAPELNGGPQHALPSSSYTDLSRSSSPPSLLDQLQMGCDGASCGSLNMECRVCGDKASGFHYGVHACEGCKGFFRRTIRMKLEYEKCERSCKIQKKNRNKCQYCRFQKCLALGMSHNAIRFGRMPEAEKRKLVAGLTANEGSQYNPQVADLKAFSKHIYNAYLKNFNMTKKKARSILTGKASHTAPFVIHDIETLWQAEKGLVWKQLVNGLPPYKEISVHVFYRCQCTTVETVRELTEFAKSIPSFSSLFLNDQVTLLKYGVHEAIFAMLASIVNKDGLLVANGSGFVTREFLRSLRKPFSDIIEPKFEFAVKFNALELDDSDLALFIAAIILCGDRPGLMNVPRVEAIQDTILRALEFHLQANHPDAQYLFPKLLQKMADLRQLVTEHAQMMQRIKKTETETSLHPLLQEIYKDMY
Description: In vitro binding affinity towards human peroxisome proliferator activated receptor delta (PPAR delta)

[4] = target: T1, Peroxisome proliferator-activated receptor gamma; experiment: Agonistic activity was determined in COS1 cells transfected with GAL 4-PPAR gamma receptor; format: functional, cell-based, COS-1
[5] = target: T3, Peroxisome proliferator-activated receptor delta; experiment: Agonistic activity was determined in COS1 cells transfected with GAL 4-PPAR delta receptor; format: functional, cell-based, COS-1
[6] = target: T2, Peroxisome proliferator-activated receptor alpha; experiment: Agonistic activity was determined in COS1 cells transfected with GAL 4-PPAR alpha receptor; format: functional, cell-based, COS-1
[7] = target: T4, Peroxisome proliferator-activated receptor gamma (Homo sapiens) (UniProt P37231); experiment: Agonistic transcriptional activity in COS1 cells expressing GAL 4-PPAR gamma at 3 uM; Maximal percent; format: functional, cell-based; conditions: COS-1
T4 sequence (whole entry): T1 sequence (P37231 whole entry)

[8] = target: T5, Peroxisome proliferator-activated receptor alpha (Homo sapiens) (UniProt Q07869); experiment: Agonistic transcriptional activity in COS1 cells expressing GAL 4-PPAR alpha at 3 uM; Maximal percent; format: functional, cell-based; conditions: COS-1
T5 sequence (whole entry): T2 sequence (Q07869 whole entry)

[9] = AUC of compound for a 2 mpk po dose of the sodium salt in rats.; format: ADME, organism-based; conditions: rat, plasma, 2 mg/kg
[10] = Bioavailability of compound was determined; format: ADME, organism-based; conditions: eutheria, in vivo

Row | SMILES | Ki [1] [nM] | Ki [2] [nM] | Ki [3] [nM] | EC50 [4] [nM] | EC50 [5] [nM] | EC50 [6] [nM] | Emax (% of standard agonist) [7] [%] | activation [8] [%] | AUC [9] [µM·h] | bioavailability [10] [%]
1 | CCCc1c(OCCCCOc2ccc(C(=O)O)cc2)ccc2c(-c3ccccc3)noc12 | > 5300 | 920 | > 14000 | – | – | – | – | – | – | –
2 | CCCc1c(OCCCCOc2ccc(OC(C)(C)C(=O)O)cc2)ccc2c(-c3ccccc3)noc12 | 2.4 | – | 23 | 2 | 172 | – | – | – | – | –
3 | CCCc1c(OCCCOc2ccccc2CC(=O)O)ccc2c(-c3ccccc3)noc12 | 498 | 489 | 62 | – | – | – | – | – | – | –
4 | CCCc1c(OCCCCOc2cccc(C(=O)O)c2)ccc2c(-c3ccccc3)noc12 | 100 | 5.2 | 508 | 193 | – | 8 | – | – | – | –
5 | CCCc1c(OCCOc2ccc(CCCC(=O)O)cc2)ccc2c(-c3ccccc3)noc12 | 616 | 305 | 156 | – | – | 33 | 72 | – | – | –
6 | CCCc1c(OCCCOc2cccc(CC(=O)O)c2)ccc2c(-c3ccccc3)noc12 | 662 | 76 | 26 | – | – | – | – | – | – | –
7 | CCCc1c(OCCCCOc2ccc(CC(C)(C)C(=O)O)cc2)ccc2c(-c3ccccc3)noc12 | 20 | 13 | 317 | 20 | 860 | 4 | – | – | – | –
8 | CCCc1c(OCCCSc2ccc(CC(=O)O)cc2Cl)ccc2c(-c3ccccc3)noc12 | 11 | 14 | 3.7 | 4 | 3 | 3 | – | – | – | –
9 | CCCc1c(OCCCCOc2cccc(C(C)(C)C(=O)O)c2)ccc2c(-c3ccccc3)noc12 | 26 | 46 | 165 | 52 | 400 | 50 | – | – | – | –
10 | CCCc1c(OCCCOc2ccc(OC(C)C(=O)O)cc2)ccc2c(-c3ccccc3)noc12 (centres undefined) | 22 | 9.3 | 4.6 | 27 | 13 | 2 | – | – | – | –
11 | CCCc1c(OCCCOc2ccc(CCCC(=O)O)cc2)ccc2c(-c3ccccc3)noc12 | 145 | 121 | 38 | 156 | 183 | 3 | – | – | – | –
12 | CCCc1c(OCCCCOc2ccc(OC(C)C(=O)O)cc2)ccc2c(-c3ccccc3)noc12 (centres undefined) | 20 | 47 | 136 | 16 | – | 2 | – | – | – | –
13 | CCCc1c(OCCCCOc2ccc(/C=C/C(=O)O)cc2)ccc2c(-c3ccccc3)noc12 | 13 | 18 | 265 | 29 | 640 | 13 | – | – | – | –
14 | CCCc1c(OCCCCOc2cccc(CCC(=O)O)c2)ccc2c(-c3ccccc3)noc12 | 115 | 329 | 52 | – | – | – | – | – | – | –
15 | CCCc1c(OCCCCOc2ccc(CC(=O)O)cc2)ccc2c(-c3ccccc3)noc12 | 30 | 7 | 93 | 60 | – | 8 | – | – | – | –
16 | CCCc1c(OCCCCOc2ccc(C(C)(C)CC(=O)O)cc2)ccc2c(-c3ccccc3)noc12 | 52 | 213 | 529 | 37 | – | 53 | – | – | – | –
17 | CCCc1c(OCCCOc2ccc(/C=C/C(=O)O)cc2)ccc2c(-c3ccccc3)noc12 | 152 | 50 | 18 | 254 | 148 | – | – | 56 | – | –
18 | CN(CCOc1ccc(CC2SC(=O)NC2=O)cc1)c1ccccn1 (centres undefined) | – | – | – | – | – | – | – | 3 | – | –
19 | CCCc1c(OCCCCOc2cccc(OCC(=O)O)c2)ccc2c(-c3ccccc3)noc12 | 52 | 133 | 47 | 87 | – | 248 | – | – | – | –
20 | CCCc1c(OCCCOc2ccc(OCC(=O)O)cc2)ccc2c(-c3ccccc3)noc12 | 34 | 8.1 | 3.7 | 75 | 16 | 4 | – | – | – | –
21 | CCCc1c(OCCCOc2ccc(CC(=O)O)cc2)ccc2c(-c3ccccc3)noc12 | – | 3 | 5 | 194 | 147 | 3 | – | – | – | –
22 | CCCc1c(OCCOc2ccc(CCC(=O)O)cc2)ccc2c(-c3ccccc3)noc12 | 304 | – | 11 | – | – | – | – | – | – | –
23 | CCCc1c(OCCCOc2cccc(CCC(=O)O)c2)ccc2c(-c3ccccc3)noc12 | 448 | 53 | 21 | – | – | – | – | – | – | –
24 | CCCc1c(OCCCCOc2ccc(C(C)(C)C(=O)O)cc2)ccc2c(-c3ccccc3)noc12 | 17 | 23 | 203 | 10 | – | 2 | – | – | – | –
25 | CCCc1c(OCCCCOc2ccccc2CC(=O)O)ccc2c(-c3ccccc3)noc12 | 348 | 86 | 47 | – | – | – | – | – | – | –
26 | CCCc1c(OCCCCOc2cccc(CC(=O)O)c2)ccc2c(-c3ccccc3)noc12 | 3.1 | 7.2 | 0.3 | 6 | 20 | 5 | – | – | 4.2 | 76
27 | CCCc1c(OCCCCOc2ccc(CCC(=O)O)cc2)ccc2c(-c3ccccc3)noc12 | 8.9 | 7.6 | 37.5 | 485 | – | 429 | – | – | – | –
28 | CCCc1c(OCCCOc2ccc(CCC(=O)O)cc2)ccc2c(-c3ccccc3)noc12 | 32 | 7.3 | 2 | – | – | – | 99 | 42 | – | –
29 | CCCc1c(OCCCOc2ccccc2CCC(=O)O)ccc2c(-c3ccccc3)noc12 | 1330 | > 33300 | 3520 | – | – | – | – | – | – | –
30 | CCCc1c(OCCCCOc2cccc(OC(C)(C)C(=O)O)c2)ccc2c(-c3ccccc3)noc12 | 41 | 255 | 110 | 100 | – | 92 | – | – | – | –
